The NIST ThermoML archive (doi:10.1021/je301095j)
Numbers after ± are expanded uncertainties.

Conditions: 101.33 kPa, Liquid; for viscosity: Capillary tube (Ostwald / Ubbelohde) method; for mass density: Vibrating tube method

| SMILES | viscosity (283.15 K) [mPa·s] | mass density (283.15 K) [kg/m3] | viscosity (293.15 K) [mPa·s] | mass density (293.15 K) [kg/m3] | viscosity (298.15 K) [mPa·s] | mass density (298.15 K) [kg/m3] | viscosity (303.15 K) [mPa·s] | mass density (303.15 K) [kg/m3] | viscosity (313.15 K) [mPa·s] | mass density (313.15 K) [kg/m3] |
| --- | --- | --- | --- | --- | --- | --- | --- | --- | --- | --- |
| CCCCCCCCO [octan-1-ol] | 13.52 ± 0.07 | 832.11 ± 0.13 | 9.167 ± 0.05 | 825.13 ± 0.13 | 7.618 ± 0.042 | 821.63 ± 0.14 | 6.395 ± 0.036 | 818.14 ± 0.14 | 4.628 ± 0.028 | 811.15 ± 0.14 |
| COCCOC [1,2-dimethoxyethane] | 0.493 ± 0.004 | 877.72 ± 0.12 | 0.438 ± 0.003 | 866.71 ± 0.12 | 0.414 ± 0.003 | 861.2 ± 0.12 | 0.392 ± 0.003 | 855.7 ± 0.13 | 0.353 ± 0.003 | 844.69 ± 0.13 |
| CCO [ethanol] | 1.459 ± 0.009 | 797.97 ± 0.12 | 1.209 ± 0.007 | 789.43 ± 0.12 | 1.098 ± 0.007 | 785.16 ± 0.12 | 0.998 ± 0.006 | 780.88 ± 0.12 | 0.831 ± 0.005 | 772.34 ± 0.13 |
| CCCCCO [pentan-1-ol] | 5.463 ± 0.04 | 821.95 ± 0.24 | 4.037 ± 0.03 | 814.6 ± 0.24 | 3.49 ± 0.026 | 810.93 ± 0.24 | 3.032 ± 0.023 | 807.25 ± 0.24 | 2.319 ± 0.018 | 799.9 ± 0.24 |
